The source of these data is US8952042B2, “FXR (NR1H4) binding and activity modulating compounds” (Phenex Pharmaceuticals AG, priority 2009, dated 2015).

Assay [1] concerns the target T1, human FXR alpha ligand binding domain (Homo sapiens, UniProt Q96RI1).
T1 construct: made in house; host or cells: E. coli BL21(DE3), vector pDEST15
T1 sequence (Q96RI1 187-472 isoform Q96RI1-2): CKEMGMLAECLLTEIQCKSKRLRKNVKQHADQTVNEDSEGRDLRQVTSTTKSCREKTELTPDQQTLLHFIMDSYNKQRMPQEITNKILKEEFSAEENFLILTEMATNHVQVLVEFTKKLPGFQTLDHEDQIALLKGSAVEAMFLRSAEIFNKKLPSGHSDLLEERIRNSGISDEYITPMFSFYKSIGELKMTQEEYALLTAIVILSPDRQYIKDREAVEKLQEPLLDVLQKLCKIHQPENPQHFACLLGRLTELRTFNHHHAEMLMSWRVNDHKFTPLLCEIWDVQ
Put plainly: FRET activity assay (ligand mediated cofactor peptide interaction, LANCE). In kind it is biochemical. The note with it: potency range. On the procedure:
Determination of a ligand mediated cofactor peptide interaction to quantify ligand binding to the nuclear receptor FXR was performed as follows: Preparation of human FXR alpha ligand binding domain: The human FXRalpha LBD was expressed in E. coli strain BL21(DE3) as an N-terminally GST tagged fusion protein. The DNA encoding the FXR ligand binding domain was cloned into vector pDEST15 (Invitrogen). Expression was under control of an IPTG inducible T7 promoter. The amino acid boundaries of the ligand binding domain were amino acids 187-472 of Database entry NM_005123 (RefSeq). Expression and purification of the FXR-LBD: An overnight preculture of a transformed E. coli strain was diluted 1:20 in LB-Ampicillin medium and grown at 30° C. to an optical density of OD600=0.4-0.6. Gene expression was then induced by addition of 0.5 mM IPTG. Cells were incubated an additional 6 h at 30° C., 180 rpm. Cells were collected by centrifugation (7000×g, 7 min, room temperature). Per liter of original cell culture, cells were resuspended in 10 mL lysis buffer (50 mM Glucose, 50 mM Tris pH 7.9, 1 mM EDTA and 4 mg/mL lysozyme) and left on ice for 30 min. Cells were then subjected to sonication and cell debris removed via centrifugation (22000×g, 30 min, 4° C.). Per 10 mL of supernatant 0.5 mL prewashed Glutathione 4B sepharose slurry (Qiagen) was added and the suspension kept slowly rotating for 1 h at 4° C. Glutathione 4B sepharose beads were pelleted by centrifugation (2000×g, 15 sec, 4° C.) and washed twice in wash buffer (25 mM Tris, 50 mM KCl, 4 mM MgCl2 and 1M NaCl). The pellet was resuspended in 3 mL elution buffer per liter of original culture (elution buffer: 20 mM Tris, 60 mM KCl, 5 mM MgCl2 and 80 mM glutathione added immediately prior to use as powder). The suspension was left rotating for 15 min at 4° C., the beads pelleted and eluted again with half the volume of elution buffer than the first time. The eluates were pooled and dialysed overnight in 20 mM Hepes buffer (pH 7.5) containing 60 mM KCl, 5 mM MgCl2 as well as 1 mM dithiothreitol and 10% (v/v) glycerol. The protein was analysed by SDS-Page.
The method measures the ability of putative ligands to modulate the interaction between the purified bacterial expressed FXR ligand binding domain (LBD) and a synthetic biotinylated peptide based on residues 676-700 of SRC-1 (LCD2, 676-700). […] The ligand binding domain (LBD) of FXR was expressed as fusion protein with GST in BL-21 cells using the vector pDEST15. Cells were lysed by sonication, and the fusion proteins purified over glutathione sepharose (Pharmacia) according to the manufacturers instructions. For screening of compounds for their influence on the FXR-peptide interaction, the Perkin Elmer LANCE technology was applied. This method relies on the binding dependent energy transfer from a donor to an acceptor fluorophor attached to the binding partner of interest. For ease of handling and reduction of background from compound fluorescence LANCE technology makes use of generic fluorophore labels and time resolved detection Assays were done in a final volume of 25 μL in a 384 well plate, in a Tris-based buffer (20 mM Tris-HCl pH 7.5; 60 mM KCl, 5 mM MgCl2; 35 ng/μL BSA), containing 20-60 ng/well recombinantly expressed FXR-LBD fused to GST, 200-600 nM N-terminally biotinylated peptide, representing SRC1 aminoacids 676-700, 200 ng/well Streptavidin-xIAPC conjugate (Prozyme) and 6-10 ng/well Eu W1024—antiGST (Perkin Elmer). DMSO content of the samples was kept at 1%. After generation of the assay mix and diluting the potentially FXR modulating ligands, the assay was equilibrated for one hour in the dark at room temperature in FIA-plates black 384 well (Greiner). The LANCE signal was detected by a Perkin Elmer VICTOR2V™ Multilabel Counter. The results were visualized by plotting the ratio between the emitted light at 665 and 615 nm.
For orientation: In TR-FRET formats the signal depends on donor and acceptor labels being close together.

For assay [2], the system named is BSEP and SHP gene expression. The experiment in a line: FXR target gene induction in mouse liver (qRT-PCR), high fat diet mice. It counts as in vivo, C57/bI6 mice. The note with it: HFD mice, estimated 30 mg/kg daily in food, normalized to TBP. How it is done: C57/bI6 mice (Elevage Janvier, France) at the age of 8 weeks were put on a high fat diet (60% kcal from fat, Sniff, Soest, Germany, Cat. No. E15771-30 (Mod. Surwit)+0.5 cholesterol (Sigma-Aldrich, Germany) added) for 4 weeks. Baseline blood samples were taken after overnight starvation and fasting plasma glucose was determined using a Roche Accucheck device. In parallel L1-heparin plasma was generated for the determination of baseline total triglyceride (TG) and total cholesterol (TC) levels. Animals were maintained on the HFD+0.5% cholesterol diet for 8 weeks and weekly blood samples were taken for the monitoring of plasma TG and TC levels using routine enzymatic analysis kits (WAKO Diagnostics, Neuss, Germany). The test compounds were dissolved in 100% palm fat and then mixed into molten food for an estimated daily uptake of 30 mg/kg based on averaged food consumption in the 4 weeks HFD adaptation period. FIGS. 4 and 5 show the development of TG and TC values.
RNA was isolated using RNAzol RT Reagent (Fermentas) and mRNA levels determined by quantitative reverse-transcription polymerase chain reaction (qRT-PCR) using Absolute QPCR Rox Mix (Invitrogen) and a real-time PCR machine from Applied Biosystems (CA). Primer and probe sequences (5′ to 3′) used were: SHP, Fwd […]; Rev […]; probe 56-FAM/[…] and BSEP, Fwd […]; Rev […]; probe 56-FAM/ATGGCT […]. All samples were run in duplicate. […]

By EC50 is commonly meant the concentration at which the effect is half-maximal. A low value points to a more potent agent. `O=C(O)c1cccc(C2CC2c2ccc(OCc3c(-c4c(Cl)cccc4Cl)noc3C3CC3)cc2Cl)c1` (racemic) [Example 4, 3-(2-(2-chloro-4-((5-cyclopropyl-3-(2,6-dichlorophenyl)isoxazol-4-yl)methoxy)phenyl)-cyclopropyl)benzoic acid] came in with an EC50 in assay [1] of 10 to 100 nM.

With `O=C(O)c1ccc(C2CC2c2ccc(OCc3c(-c4c(Cl)cccc4Cl)noc3C3CC3)cc2Cl)cc1` (racemic) [Example 12, 4-(2-(2-chloro-4-((5-cyclopropyl-3-(2,6-dichlorophenyl)isoxazol-4-yl)methoxy)phenyl)cyclopropyl)benzoic acid], in assay [1], the EC50 is over 100 nM. Also, in assay [2], the “gene expression of BSEP in liver” value is recorded as 6 fold and the “gene expression of SHP in liver” value is 6 fold.
